Measurements from patent US8765778B2, “Rifamycin derivatives” (Alfa Wassermann, S.p.A., priority 2009, dated 2014).
Values after ≈ are worked out from the molar mass of the structure shown.

Tests used:
E. coli = E. coli ATCC 25922, control standard
Excerpt: (§1) They are expressed as milligrams of substance per liter of culture medium.

P. aeruginosa = P. aeruginosa ATCC 27853, control standard
Excerpt: as §1

S. aureus = S. aureus ATCC29213, control standard
Excerpt: as §1

bacterial infection = details: following a 10 day course of treatment with a pharmaceutical formulation
Excerpt: A patient suffering from a bacterial infection is identified.

E. faecalis = details: ATCC 29212, control standard

## COC1/C=C/OC2(C)Oc3c(C)c(O)c4c([O-])c(c5c([nH]c6cc(C)cc[n+]65)c4c3C2=O)NC(=O)/C(CO)=C\C=C\C(C)C(O)C(C)C(O)C(C)C(OC(C)=O)C1C (centres unmarked) [Example 2]
E. coli
  MIC: 32 µg/mL (≈ 39.9 µM)
P. aeruginosa
  MIC: 32 µg/mL (≈ 39.9 µM)
S. aureus
  M.I.C.: 0.5 mg/mL
Bacterial infection
  level of bacterial infection in the patient: reduced
E. faecalis
  M.I.C.: 64 mg/mL
